# From US12083181B2, “Bi-functional molecules to degrade circulating proteins” (Yale University, priority 2018, dated 2024)
# Key:
# rhuMIF [1] = molecular target: T1, rhuMIF (Homo sapiens, UniProt P14174); experiment: Depletion of human MIF from supernatant of cultured HepG2 cells, sandwich ELISA; format: cell-based; conditions: 100 nM huMIF, after 24 hours
# T1 sequence (P14174 2-115 limits assumed): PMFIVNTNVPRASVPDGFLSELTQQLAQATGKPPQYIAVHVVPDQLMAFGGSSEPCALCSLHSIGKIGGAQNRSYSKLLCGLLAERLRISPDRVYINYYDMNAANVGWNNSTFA
# Experimental: In an experiment the results of which are presented in FIG. 3, bifunctional molecules were able to deplete human MIF from the supernatant of culture HepG2 cells. Briefly, human MIF (100 nM) was added to cell culture media in the presence of negative control MIF inhibitor 3w as well as bifunctional molecules MIF-NVS-PEGn-GN3, MIF-GN3, MIF-PEGn-Gn3, MIF-AcF3-1, MIF-AcF3-2, and MIF-AcF3-3. All molecules utilized a known MIF-binding ligand. Experiments were performed in 96 well plates (approximate surface area 0.3 cm^2). HepG2 cells were grown to 90% confluency in RPMI media, then washed with PBS (2×) and treated with serum-free media (optimem+0.1% BSA, +Pen/Strep) containing 100 nM huMIF (Cayman Chemical) and compounds (when applicable). Compounds were diluted from 1 mM stock solutions in DMSO. After 24 hours, a sample of the supernatant (2 uL) was collected, diluted 1:100, and analyzed for MIF content by sandwich ELISA (and incubated for 24 hours in the presence or absence of compound). Remaining MIF levels were determined by sandwich ELISA (biolegend monoclonal anti-MIF and biotinylated anti-MIF antibodies). Data represents the average of at least 3 biological replicates, and error bars represent a standard deviation. After 24 hours, up to 95.3% of the MIF had been depleted from cell culture media (in the case of MIF-AcF3-3).
# rhuMIF [2] = molecular target: T1, rhuMIF; experiment: Trafficking of MIF internalized by HepG2 cells to lysosomes, immunofluorescence; format: cell-based; parameters: purchased Cayman Chemical; conditions: 100 nM rhuMIF, 200 nM compound, 12 hours
# Experimental: In this experiment, cells were incubated with rhuMIF (Cayman) at a concentration of 100 nM with 200 nM MIF-GN3.
# rhuMIF [3] = molecular target: T1, rhuMIF; experiment: Depletion of injected human MIF from mice, serum sandwich ELISA; format: in vivo; conditions: nude mice injected with 5 μg recombinant human MIF
# Experimental: Human MIF has a half-life of approximately 40 minutes in mice. In this experiment, human recombinant MIF (Cayman chemical) was co-injected into mice with an anti-DNP IgG, which was used as an injection positive control. In particular, nude mice were injected with 5 μg recombinant human MIF and 200 μg anti-DNP IgG as an injection control (FIG. 4). MIF-GN3 was then injected at the concentration shown and blood drawn every twenty minutes over the course of two hours. Serum was diluted 1:100 and analyzed for MIF content by sandwich ELISA (biolegend monoclonal anti-MIF and biotinylated anti-MIF antibodies).
# [4] = system: PC3 human prostate cancer cells; experiment: Mouse model of prostate cancer, tumor growth; format: in vivo; conditions: nude mice engrafted with PC3 cells, treatment initiated immediately
# Text: In this experiment, nude mice were engrafted with PC3 human prostate cancer cells. Treatment was then initiated immediately with either a non-bifunctional MIF inhibitor (3w), an anti-MIF antibody, or MIF-GN3.
smiles,measurement,setting,value
O=C(CCOCC(COCCC(=O)NCCOCCOCCOCCOC[C@@]12CO[C@@H](O1)[C@H](NC(=O)C(F)(F)F)[C@@H](O)[C@H]2O)(COCCC(=O)NCCOCCOCCOCCOC[C@@]12CO[C@@H](O1)[C@H](NC(=O)C(F)(F)F)[C@@H](O)[C@H]2O)NC(=O)CCCOc1ccc2nc(-c3cn(-c4ccc(O)c(F)c4)nn3)ccc2c1)NCCOCCOCCOCCOC[C@@]12CO[C@@H](O1)[C@H](NC(=O)C(F)(F)F)[C@@H](O)[C@H]2O [MIF-AcF3-3],MIF depleted from cell culture media,rhuMIF [1],95.3%
CC(=O)N[C@H]1[C@H](OCCOCCOCCNC(=O)CCOCC(COCCC(=O)NCCOCCOCCO[C@@H]2O[C@H](CO)[C@H](O)[C@H](O)[C@H]2NC(C)=O)(COCCC(=O)NCCOCCOCCO[C@@H]2O[C@H](CO)[C@H](O)[C@H](O)[C@H]2NC(C)=O)NC(=O)CNC(=O)CCCOc2ccc3nc(-c4cn(-c5ccc(O)c(F)c5)nn4)ccc3c2)O[C@H](CO)[C@H](O)[C@@H]1O [MIF-GN3],trafficking of internalized MIF to lysosomes,rhuMIF [2],evidencing internalization in lysosomes
same,serum huMIF levels,"rhuMIF [3]; blood drawn over two hours, PBS control up to 150 ng/ml",up to 20 ng/ml
same,decrease in huMIF levels,rhuMIF [3]; versus PBS,substantial decrease in huMIF levels
same,tumor growth,[4],showed a slowing of tumor growth
